Source: ChEMBL document CHEMBL3132851, “Achieving improved permeability by hydrogen bond donor modulation in a series of MGAT2 inhibitors” (Medchemcomm, 2013)
Converted amounts (≈) assume the structure as drawn.

Columns and labels:
[1] = Lipophilicity, log D of the compound at pH 7.4 after 30 mins by shake-flask method; settings: buffer; for logD at 0.5 h: pH 7.4, logD; for logD: pH 7.4, 0.5 h, 0.5 h
[2] = (§1) Apparent permeability of the compound from apical to basolateral side in human Caco2 cells; settings: Caco-2, Papp
[3] = target: 2-acylglycerol O-acyltransferase 2 (Homo sapiens, UniProt Q3SYC2); experiment: Inhibition of human MGAT2 by Rapidfire LCMS assay
[4] = Unbound fraction in mouse plasma by equilibrium dialysis method; type: ADME, cell-free
[5] = Bioavailability in rat at 3 mg/kg, po and 1 mg/kg, iv; type: ADME, organism-based; settings: in vivo
[6] = Unbound fraction in human plasma by equilibrium dialysis method; type: ADME, cell-free
Cytochrome P450 1A2 = target: T1, Cytochrome P450 1A2 (Homo sapiens, UniProt P05177); experiment: Inhibition of CYP1A2 (unknown origin); type: ADME
T1 sequence (P05177 whole entry): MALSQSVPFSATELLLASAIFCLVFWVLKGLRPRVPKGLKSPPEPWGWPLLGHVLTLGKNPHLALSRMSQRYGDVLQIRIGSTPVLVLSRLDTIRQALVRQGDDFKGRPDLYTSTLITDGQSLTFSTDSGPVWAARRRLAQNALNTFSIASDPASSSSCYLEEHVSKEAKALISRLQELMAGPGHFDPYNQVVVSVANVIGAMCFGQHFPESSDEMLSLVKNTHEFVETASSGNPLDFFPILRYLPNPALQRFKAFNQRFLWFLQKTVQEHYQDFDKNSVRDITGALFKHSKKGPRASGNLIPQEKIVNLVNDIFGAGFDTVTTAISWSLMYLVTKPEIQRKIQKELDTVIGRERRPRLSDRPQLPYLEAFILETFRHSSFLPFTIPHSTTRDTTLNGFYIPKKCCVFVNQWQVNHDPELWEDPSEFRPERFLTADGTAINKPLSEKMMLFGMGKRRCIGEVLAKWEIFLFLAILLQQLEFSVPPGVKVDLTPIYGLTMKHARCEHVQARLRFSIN

[7] = Half life in mouse at 1 mg/kg, iv; type: ADME, organism-based; set-up: dose 1 mg/kg, route intravenous; settings: in vivo
[8] = Half life in mouse at 50 mg/kg, po; type: ADME, organism-based; set-up: dose 50 mg/kg, route oral; settings: in vivo
Cytochrome P450 2C9 = Cytochrome P450 2C9 (Homo sapiens, UniProt P11712); experiment: Inhibition of CYP2C9 (unknown origin); type: ADME
[9] = Volume of distribution at steady state in rat at 3 mg/kg, po and 1 mg/kg, iv; type: ADME, organism-based; settings: in vivo, read-out: Vdss
[10] = Bioavailability in mouse at 50 mg/kg, po and 1 mg/kg, iv; type: ADME, organism-based; settings: in vivo
[11] = Aqueous solubility of the compound in phosphate buffer at pH 7.4 after 24 hrs by LC-UVMS analysis; type: physicochemical
Cytochrome P450 2D6 = Cytochrome P450 2D6 (Homo sapiens, UniProt P10635); experiment: Inhibition of CYP2D6 (unknown origin); type: ADME
[12] = Half life in rat at 1 mg/kg, iv; type: ADME, organism-based; set-up: dose 1 mg/kg, route intravenous; settings: in vivo
[13] = Half life in rat at 3 mg/kg, po; type: ADME, organism-based; set-up: dose 3 mg/kg, route oral; settings: in vivo
[14] = Volume of distribution at steady state in mouse at 50 mg/kg, po and 1 mg/kg, iv; type: ADME, organism-based; settings: in vivo, read-out: Vdss
[15] = Plasma clearance in rat at 3 mg/kg, po and 1 mg/kg, iv; type: ADME, organism-based
[16] = Plasma clearance in mouse at 50 mg/kg, po and 1 mg/kg, iv; type: ADME, organism-based
Cytochrome P450 3A4 = Cytochrome P450 3A4 (Homo sapiens, UniProt P08684); experiment: Inhibition of CYP3A4 (unknown origin); type: ADME
Cytochrome P450 2C19 = Cytochrome P450 2C19 (Homo sapiens, UniProt P33261); experiment: Inhibition of CYP2C19 (unknown origin); type: ADME
[17] = Unbound fraction in rat plasma by equilibrium dialysis method; type: ADME, cell-free
Caco-2 = experiment: as §1; settings: caco-2

Chain of 2-acylglycerol O-acyltransferase 2 (Q3SYC2 whole entry): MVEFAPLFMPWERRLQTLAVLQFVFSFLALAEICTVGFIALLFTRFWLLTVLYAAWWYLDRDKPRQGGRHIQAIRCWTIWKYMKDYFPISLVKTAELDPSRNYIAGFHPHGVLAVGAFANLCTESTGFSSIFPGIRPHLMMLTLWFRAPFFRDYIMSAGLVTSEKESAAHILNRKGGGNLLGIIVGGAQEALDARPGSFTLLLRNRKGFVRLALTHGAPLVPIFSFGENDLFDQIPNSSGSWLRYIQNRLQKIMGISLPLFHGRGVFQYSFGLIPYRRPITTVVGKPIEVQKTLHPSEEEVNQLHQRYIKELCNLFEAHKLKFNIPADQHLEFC
Chain of Cytochrome P450 2C9 (P11712 whole entry): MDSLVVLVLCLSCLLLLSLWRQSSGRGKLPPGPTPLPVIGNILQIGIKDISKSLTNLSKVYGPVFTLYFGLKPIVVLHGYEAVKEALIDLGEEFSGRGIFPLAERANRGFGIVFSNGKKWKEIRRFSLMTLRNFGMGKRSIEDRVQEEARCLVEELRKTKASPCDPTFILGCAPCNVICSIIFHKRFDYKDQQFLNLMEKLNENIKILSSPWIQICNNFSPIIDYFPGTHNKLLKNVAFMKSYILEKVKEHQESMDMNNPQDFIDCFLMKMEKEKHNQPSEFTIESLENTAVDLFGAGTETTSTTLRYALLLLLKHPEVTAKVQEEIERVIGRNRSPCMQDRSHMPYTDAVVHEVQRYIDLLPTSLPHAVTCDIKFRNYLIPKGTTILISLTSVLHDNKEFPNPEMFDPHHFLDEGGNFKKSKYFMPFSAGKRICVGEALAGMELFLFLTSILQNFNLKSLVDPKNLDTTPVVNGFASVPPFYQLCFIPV
Chain of Cytochrome P450 2C19 (P33261 whole entry): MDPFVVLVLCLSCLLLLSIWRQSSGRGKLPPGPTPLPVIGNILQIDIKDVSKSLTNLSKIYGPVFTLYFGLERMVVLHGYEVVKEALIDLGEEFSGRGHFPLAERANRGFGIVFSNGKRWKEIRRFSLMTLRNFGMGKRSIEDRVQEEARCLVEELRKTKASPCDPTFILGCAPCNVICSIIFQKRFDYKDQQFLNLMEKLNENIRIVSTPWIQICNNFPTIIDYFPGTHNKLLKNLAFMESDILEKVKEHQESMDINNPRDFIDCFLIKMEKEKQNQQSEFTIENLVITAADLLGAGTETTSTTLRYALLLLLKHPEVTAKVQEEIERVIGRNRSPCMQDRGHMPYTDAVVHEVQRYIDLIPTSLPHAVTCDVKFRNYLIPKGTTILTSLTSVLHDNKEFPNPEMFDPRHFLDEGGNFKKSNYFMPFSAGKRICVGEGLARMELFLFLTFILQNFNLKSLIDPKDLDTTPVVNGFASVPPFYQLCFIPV
Chain of Cytochrome P450 2D6 (P10635 whole entry): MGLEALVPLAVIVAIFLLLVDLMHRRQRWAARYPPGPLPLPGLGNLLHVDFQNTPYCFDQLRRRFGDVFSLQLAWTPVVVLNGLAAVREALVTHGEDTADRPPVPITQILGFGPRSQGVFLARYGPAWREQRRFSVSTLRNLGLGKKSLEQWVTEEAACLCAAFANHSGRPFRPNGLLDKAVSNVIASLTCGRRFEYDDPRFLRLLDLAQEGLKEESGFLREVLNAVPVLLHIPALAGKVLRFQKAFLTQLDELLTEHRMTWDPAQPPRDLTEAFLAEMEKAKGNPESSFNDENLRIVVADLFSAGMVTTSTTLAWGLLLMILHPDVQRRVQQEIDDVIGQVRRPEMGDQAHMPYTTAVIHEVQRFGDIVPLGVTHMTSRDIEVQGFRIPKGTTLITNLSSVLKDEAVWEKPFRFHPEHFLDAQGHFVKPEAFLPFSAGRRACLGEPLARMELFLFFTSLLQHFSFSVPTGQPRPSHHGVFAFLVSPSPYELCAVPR
Chain of Cytochrome P450 3A4 (P08684 whole entry): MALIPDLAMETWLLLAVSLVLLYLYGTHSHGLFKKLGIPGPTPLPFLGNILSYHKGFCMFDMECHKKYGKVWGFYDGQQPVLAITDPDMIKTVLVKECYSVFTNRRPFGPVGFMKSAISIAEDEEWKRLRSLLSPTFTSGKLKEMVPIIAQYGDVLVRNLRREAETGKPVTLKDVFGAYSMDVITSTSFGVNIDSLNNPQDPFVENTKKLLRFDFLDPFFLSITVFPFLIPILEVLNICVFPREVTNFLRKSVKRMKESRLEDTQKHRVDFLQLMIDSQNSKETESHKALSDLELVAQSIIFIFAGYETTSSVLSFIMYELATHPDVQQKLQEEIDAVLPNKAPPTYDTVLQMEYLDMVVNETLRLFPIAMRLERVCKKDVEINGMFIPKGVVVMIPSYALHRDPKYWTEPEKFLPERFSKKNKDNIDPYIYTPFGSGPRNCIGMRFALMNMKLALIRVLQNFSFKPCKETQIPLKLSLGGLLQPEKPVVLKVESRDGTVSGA

Structure (SMILES) | logD at 0.5 h [1] | Papp A→B [2] [nm/s] | IC50 [3] [µM] | other results
CC[C@]1(C)NC(=O)c2cc(S(=O)(=O)Nc3ccc(F)cc3F)ccc2NC1=O | 1.7 | 80 |  | 
COc1c(S(=O)(=O)Nc2ccc(C(F)(F)F)cc2)ccc2c1C(=O)NC(C)(C)C(=O)N2 | 1.9 | 70 | > 100 | 
COc1cc2c(cc1S(=O)(=O)Nc1ccc(C(F)(F)F)cc1)C(=O)NC(C)(C)C(=O)N2 | 2.8 | 10 | 7.61 | 
COc1cc(S(=O)(=O)Nc2ccc(C(F)(F)F)cc2)cc2c1NC(=O)C(C)(C)NC2=O | 2.6 | 120 | 0.109 | 
Cc1c(S(=O)(=O)Nc2ccc(C(F)(F)F)cc2)ccc2c1C(=O)NC(C)(C)C(=O)N2 |  | 90 | 13.6 | 
Cc1cc2c(cc1S(=O)(=O)Nc1ccc(C(F)(F)F)cc1)C(=O)NC(C)(C)C(=O)N2 |  |  | 13.4 | 
Cc1cc(S(=O)(=O)Nc2ccc(C(F)(F)F)cc2)cc2c1NC(=O)C(C)(C)NC2=O | 2.6 | 70 | 0.052 | 
CC1(C)NC(=O)c2cc(S(=O)(=O)Nc3ccc(C(F)(F)F)cc3)ncc2NC1=O | 1.6 | 10 | 10.5 | 
CC1(C)NC(=O)c2cc(S(=O)(=O)Nc3ccc(C(F)(F)F)cc3)cnc2NC1=O | 1.8 | 100 | > 66 | 
CC1(C)NC(=O)c2cc(S(=O)(=O)Nc3ccc(F)cc3F)ccc2NC1=O | 1.3 | 50 | 0.058 | 
CC1(C)NC(=O)c2cc(S(=O)(=O)Nc3ccc(F)cc3F)cc(C#N)c2NC1=O |  | 30 | 0.405 | 
CC1(C)NC(=O)c2c(ccc(S(=O)(=O)Nc3ccc(C(F)(F)F)cc3)c2F)NC1=O | 2.4 | 40 | 40.4 | 
CC1(C)NC(=O)c2cc(S(=O)(=O)Nc3ccc(C(F)(F)F)cc3)cc(F)c2NC1=O | 2.3 | 140 | 1.95 | 
CC1(C)NC(=O)c2cc(S(=O)(=O)Nc3ccc(C(F)(F)F)cc3)c(F)cc2NC1=O |  |  | 1.49 | 
CC1(C)NC(=O)c2cc(S(=O)(=O)Nc3ccc(C(F)(F)F)cc3)ccc2NC1=O | 2.6 | 60 | 0.911 | 
CCC1(C)NC(=O)c2cc(S(=O)(=O)Nc3ccc(C)cc3C#N)cc(Cl)c2NC1=O (single isomer, unassigned) | 0.6 | 110 | 0.117 | 
CCC1(C)NC(=O)c2cc(S(=O)(=O)Nc3ccc(F)cc3F)cc(C)c2NC1=O (single isomer, unassigned; enantiomer 2) | 5.4 | 140 | 0.062 | 

Now from value to compound, other results behind:

logD at 0.5 h [1] | Papp A→B [2] [nm/s] | IC50 [3] [µM] | Structure (SMILES) | other results
1.7 | 90 | 0.012 | CC[C@]1(C)NC(=O)c2cc(S(=O)(=O)Nc3ccc(C(F)(F)F)cc3F)ccc2NC1=O | 
1.4 | 100 | 0.016 | Cc1cc(S(=O)(=O)Nc2ccc(F)cc2F)cc2c1NC(=O)C(C)(C)NC2=O | 
1.9 | 460 | 0.03 | CC1(C)NC(=O)c2cc(S(=O)(=O)Nc3ccc(F)cc3F)cc(C(F)(F)F)c2NC1=O | 
1.9 | 350 | 0.009 | CCC1(C)NC(=O)c2cc(S(=O)(=O)Nc3ccc(F)cc3F)cc(Cl)c2NC1=O (stereo not drawn) | fraction unbound [4]: 0.037; bioavailability [5]: 69%; fraction unbound [6]: 0.017; IC50 (Cytochrome P450 1A2): > 30 µM; half-life [7]: 0.2 h; half-life [8]: 1.2 h; IC50 (Cytochrome P450 2C9): > 30 µM; Vd [9]: 0.4 L/kg; bioavailability [10]: 74%; solubility at 24 h [11]: 150 µM (≈ 66.6 µg/mL); IC50 (Cytochrome P450 2D6): > 30 µM; half-life [12]: 1.3 h; half-life [13]: 2.4 h; Vd [14]: 0.5 L/kg; clearance [15]: 0.246 L/h/kg; clearance [16]: 1.74 L/h/kg; IC50 (Cytochrome P450 3A4): > 30 µM; IC50 (Cytochrome P450 2C19): 27 µM; fraction unbound [17]: 0.03
1.8 | 290 | 0.012 | CCC1(C)NC(=O)c2cc(S(=O)(=O)Nc3ccc(C(F)(F)F)cc3F)cc(Cl)c2NC1=O (stereo not drawn) | 
3 | 580 | 0.007 | CCC1(C)NC(=O)c2cc(S(=O)(=O)Nc3ccc(C(F)(F)F)cc3OC)cc(Cl)c2NC1=O (stereo not drawn) | 
1.8 | 220 | 0.01 | CCC1(C)NC(=O)c2cc(S(=O)(=O)Nc3ccc(F)cc3F)cc(OC)c2NC1=O (racemic) | 
2.1 | 240 | 0.004 | CCc1cc(S(=O)(=O)Nc2ccc(F)cc2F)cc2c1NC(=O)C(C)(CC)NC2=O (racemic) | 
 |  | 0.007 | CCC1(C)NC(=O)c2cc(S(=O)(=O)Nc3ccc(F)cc3F)cc(C)c2NC1=O (single isomer, unassigned) | logD [1]: 6.5; Papp (Caco-2): 90 nm/s
 |  | 0.023 | CCC1(C)NC(=O)c2cc(S(=O)(=O)Nc3ccc(C)cc3C#N)cc(Cl)c2NC1=O (single isomer, unassigned; enantiomer 1) | logD [1]: 0.4; Papp (Caco-2): 140 nm/s
